# According to patent US7132458B2, “Oxidized carotenoid fractions and ketoaldehyde useful as cell-differentiation inducers, cytostatic agents, and anti-tumor agents” (Chemaphor Inc., priority 1994, dated 2006):
# Key:
# HCT116 = assay: Cytostatic effect (Hoechst 33258 DNA fluorescence, 3 days); format: cell-based, human; set-up: key: +: activity higher; 0: similar to; −: less than the activity of β-Car^OX; settings: ranked relative to β-Car^OX across six concentrations 2.5-45 μM
# Experimental: (§1) Fractions were tested for cytostatic properties and ability to induce differentiation. The results were compared with those obtained for β-Car^OX, which served as a reference indicating whether or not fractionation was leading to fractions with enhanced activity. Retinoic acid and/or β-carotene were used as controls in some of the cell lines tested in order to differentiate their effects from that of β-Car^OX. All of the samples were tested in identical ‘by weight’ concentrations. Comparisons have been done on a pseudo molarity scale by dividing the weight of sample used by the molecular weight of β-carotene (537 Da). Fractions were tested in human colon carcinoma (HCT116), human neuroblastoma (IMR32), human acute promyelocytic leukemia (NB4), human chronic myelogenous leukemia (K562), and mouse keratinocytes (Balb/c/MK).
# (§2) Fractions have been ranked relative to β-Car^OX by dividing each growth inhibition value at each sample concentration by the corresponding β-Car^OX value and determining qualitatively by inspection the trends across the six sample concentrations. Activities of fractions are expressed as “+”, “0”, and “−”, indicating activity higher, similar to, and less than the activity of β-Car^OX, respectively.
# IMR32 [1] = assay: as above; format: cell-based, human; set-up: key: +: activity higher; 0: similar to; −: less than the activity of β-Car^OX; settings: ranked relative to β-Car^OX across six concentrations 2.5-45 μM
# Experimental: as §1, §2
# K562 = assay: as above; format: cell-based, human; set-up: key: +: activity higher; 0: similar to; −: less than the activity of β-Car^OX; settings: ranked relative to β-Car^OX across six concentrations 2.5-22.5 μM
# Experimental: as §1, §2
# NB4 [2] = assay: as above; format: cell-based, human; set-up: key: +: activity higher; 0: similar to; −: less than the activity of β-Car^OX; settings: ranked relative to β-Car^OX across six concentrations 2.5-22.5 μM
# Experimental: as §1, §2
# Balb/c/MK keratinocytes = assay: Expression of cytokeratins in keratinocytes; format: cell-based, mouse; settings: Ca^++ 1.8 mM, Retinoic Acid 3 μM, β-Car^OX 30 μM; for IA, intensity of expression per cell, Cytokeratins 1 and 10: control 4.4; for IA, intensity of expression per cell, panel (CAMON) of Cytokeratins: control 60.7; for A, percentage of immunopositive cells expressing Cytokeratins 1 and 10: control 90.3; for A, percentage of immunopositive cells expressing a panel (CAMON) of Cytokeratins: control 93.7
# Text: Qualitative data were provided in the first phase of research for the differentiation-inducing effect of β-Car^OX upon the mouse Balb/c/MK keratinocyte cell line.
# Cytokeratins 1 and 10 are high molecular weight proteins which are increasingly expressed with the progression of the differentiation program. […] Cells cultured in low calcium media remain proliferative. […] The apparently smaller effect of β-Car^OX compared to retinoic acid is due not to lower potency but to a delayed action and similar results are obtained using a panel of other cytokeratins (Cytokeratin coctail from CAMON containing cytokeratins 1–8, 10, 13, 14, 15, 16, 19).
# NB4 cells = assay: Cell cycling, flow cytometry of intracellular DNA content; format: cell-based, human; settings: synchronized populations, controls 22 hours
# Experimental: There is no G1 block. This effect is due to a lengthening of the duration of the cell cycle. […] The data were acquired using flow cytometry analysis of the individual intracellular DNA content of cells from synchronized populations. Sampling was done every 5 hours over a period of 48 hours.
# IMR32 [3] = assay: Differentiating properties of combinations of β-Car^OX and retinoic acid; format: cell-based, human; settings: Retinoic Acid L 1–2.5 μM alone
# Text: (§3) Given the cell differentiation-inducing properties of β-Car^OX and some of its fractions, it is instructive not only to compare the effects obtained with those of the better known all-trans retinoic acid, which is recognized as being able to regulate differentiation capacities of several mammalian cell types, but to determine also the effect upon cells when β-Car^OX and retinoic acid are used together. Table 4 presents qualitative data illustrating the results obtained with various combinations of β-Car^OX and retinoic acid in both the NB4 and IMR32 cell lines.
# (§4) When an equipotent concentration of β-Car^OX is combined with retinoic acid, their differentiation-inducing effects cancel out. However, when the concentration of either one of them is increased relative to the other, differentiation-induction is restored.
# NB4 [4] = assay: as above; format: cell-based, human; settings: Retinoic Acid L 0.1–1 μM alone
# Text: as §3, §4
# NB4 cell line = assay: Expression of differentiation markers CD33, CD11b, CD15 at five days; format: cell-based, human; settings: combined treatments 1 μM RA and 7.5 μM β-Car^OX or fraction
# Experimental: The cell differentiation-inducing effects of the fractions were determined qualitatively by observation of morphological changes in cell lines and quantitatively by measuring the expression of characteristic protein markers using monoclonal antibodies and flow cytometry. […] Many differentiation markers are expressed transiently during the differentiation program. In the NB4 cell line, protein CD33 is associated with early stages of differentiation, followed by protein CD11b, an intermediate marker, and eventually by protein CD15, an advanced differentiation marker. Enhanced differentiation therefore will be characterized by a decrease in the expression and intensity of the CD33 marker and an increase in expression and intensity of the CD15 marker.
# IMR32 cell line = assay: Expression of NF and GFAP markers; format: cell-based, human; settings: β-Car^OX 0 μM
# Text: Expression of glial fibrillary acidic protein, GFAP, is a useful marker indicating differentiation towards glial cells.
# DA-3 cell line = assay: Viability (MTT test), melphalan with β-Car^OX; format: cell-based; settings: Mus musculus
# Text: The benefit of the cellular GSH-lowering effect is illustrated by what happens to the viability of DA-3 cells, using the MTT test, treated with both β-Car^OX and melphalan, a classical anticancer agent.
smiles,measurement,setting,value
CC1=C(/C=C/C(C)=C/C=C/C(C)=C/C(=O)O)C(C)(C)CCC1 [All trans Retinoic Acid],"Cytostatic Effect On Cell Lines, HCT116",HCT116,−
same,"Cytostatic Effect On Cell Lines, IMR32",IMR32 [1],+
same,"Cytostatic Effect On Cell Lines, K562",K562,0
same,"Cytostatic Effect On Cell Lines, NB4",NB4 [2],0
same,"IA, intensity of expression per cell, Cytokeratins 1 and 10",Balb/c/MK keratinocytes,15.4 arbitrary units
same,"IA, intensity of expression per cell, panel (CAMON) of Cytokeratins",Balb/c/MK keratinocytes,129.8 arbitrary units
same,"A, percentage of immunopositive cells expressing Cytokeratins 1 and 10",Balb/c/MK keratinocytes,94.5
same,"A, percentage of immunopositive cells expressing a panel (CAMON) of Cytokeratins",Balb/c/MK keratinocytes,94.3
same,duration of the cell cycle,NB4 cells,18 h
same,Differentiation,IMR32 [3],yes
same,Differentiation,NB4 [4],yes
same,"CD11b A, percentage of immunopositive cells",NB4 cell line,71.9
same,"CD11b IA, average intensity of marker expression per cell",NB4 cell line,2.6 arbitrary units
same,"CD15 A, percentage of immunopositive cells",NB4 cell line,73.1
same,"CD15 IA, average intensity of marker expression per cell",NB4 cell line,73.1 arbitrary units
same,"CD33 A, percentage of immunopositive cells",NB4 cell line,87.1
same,"CD33 IA, average intensity of marker expression per cell",NB4 cell line,1.6 arbitrary units
same,GFAP %,IMR32 cell line; RA 1.0 μM,94.4%
same,GFAP intensity,IMR32 cell line; RA 1.0 μM,18.4
same,NF %,IMR32 cell line; RA 1.0 μM,96.4%
same,NF intensity,IMR32 cell line; RA 1.0 μM,14.2
same,GFAP %,IMR32 cell line; RA 2.5 μM,90.5%
same,GFAP intensity,IMR32 cell line; RA 2.5 μM,6.1
same,NF %,IMR32 cell line; RA 2.5 μM,97.2%
same,NF intensity,IMR32 cell line; RA 2.5 μM,11.9
same,GFAP %,IMR32 cell line; RA 5.0 μM,87.5%
same,GFAP intensity,IMR32 cell line; RA 5.0 μM,5.2
same,NF %,IMR32 cell line; RA 5.0 μM,95.5%
same,NF intensity,IMR32 cell line; RA 5.0 μM,8.4
same,GFAP %,IMR32 cell line; RA 10.0 μM,83.1%
same,GFAP intensity,IMR32 cell line; RA 10.0 μM,4.0
same,NF %,IMR32 cell line; RA 10.0 μM,92.0%
same,NF intensity,IMR32 cell line; RA 10.0 μM,7.9
[Ca+2] [Ca^++],"IA, intensity of expression per cell, Cytokeratins 1 and 10",Balb/c/MK keratinocytes,13.8 arbitrary units
same,"IA, intensity of expression per cell, panel (CAMON) of Cytokeratins",Balb/c/MK keratinocytes,87.2 arbitrary units
same,"A, percentage of immunopositive cells expressing Cytokeratins 1 and 10",Balb/c/MK keratinocytes,96.5
same,"A, percentage of immunopositive cells expressing a panel (CAMON) of Cytokeratins",Balb/c/MK keratinocytes,97.6
N[C@@H](Cc1ccc(N(CCCl)CCCl)cc1)C(=O)O [Melphalan],IC50,"DA-3 cell line; DA-3, in presence of β-Car^OX 5 μM",40 µM
same,IC50,"DA-3 cell line; DA-3, in presence of β-Car^OX 7.5 μM",44 µM
same,IC50,"DA-3 cell line; DA-3, in presence of β-Car^OX 10 μM",6.6 µM
same,IC50,"DA-3 cell line; DA-3, in presence of β-Car^OX 20 μM",6.8 µM
same,IC50,"DA-3 cell line; DA-3, β-Car^OX 0 μM",100 µM
CC1=C(/C=C/C(C)=C/C=C/C(C)=C/C=C/C=C(C)/C=C/C=C(C)/C=C/C2=C(C)CCCC2(C)C)C(C)(C)CCC1 [β-Carotene],"Cytostatic Effect On Cell Lines, HCT116",HCT116,−
same,"Cytostatic Effect On Cell Lines, IMR32",IMR32 [1],0
same,"Cytostatic Effect On Cell Lines, K562",K562,−
same,"Cytostatic Effect On Cell Lines, NB4",NB4 [2],−
